Where “and” joins values, the source holds several entries; their conditions need not be identical. Equal values may be shown once.
System: HSSY-II tumor spheroid viability
Assay: Anticancer human tumor HSSY-II cell line growth inhibition;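 also: spheroids exposed to compounds for seven days before reading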;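 as to viability, T/C: percent of DMSO vehicle control viability so 100% = untreated level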
Settings: spheroids with HUVEC and MSC; for viability, T/C: stronger effect = lower value; active = viability on the fitted dose curve at most 10% of control; inactive = the rest
How it was run: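 Single agents and combinations were tested on spheroids built from tumor cells plus HUVEC and hMSC, at half-log dilutions starting at or near clinical Cmax, else 10 microM; final DMSO 0.25% (v/v).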

CC1COCCN1c1cc(-c2ccnn2C)c2ccnc(-c3ccn[nH]3)c2n1 (configuration not stated) + Cn1nnc2c(C(N)=O)ncn2c1=O
< 0.0316 µM: IC50 (curve of first compound, second compound 1 µM) | IC50 (curve of first compound, second compound 3.16 µM) | IC50 (curve of first compound, second compound 10 µM) | IC50 (curve of first compound, second compound 31.6 µM) | IC50 (curve of first compound, second compound 100 µM)
inactive: viability, T/C (second compound 1 µM, first compound 0.0316 µM) 29% | viability, T/C (second compound 3.16 µM, first compound 0.0316 µM) 25.1% | viability, T/C (second compound 10 µM, first compound 0.0316 µM) 19% | viability, T/C (second compound 31.6 µM, first compound 0.0316 µM) 16.2%
active: viability, T/C (second compound 1 µM, first compound 0.1 µM) 6.4% | viability, T/C (second compound 1 µM, first compound 0.316 µM) 2.45% | viability, T/C (second compound 1 µM, first compound 1 µM) 1.92% | viability, T/C (second compound 1 µM, first compound 3.16 µM) 1.78% | viability, T/C (second compound 1 µM, first compound 10 µM) 2.4% | viability, T/C (second compound 3.16 µM, first compound 0.1 µM) 6.11% | viability, T/C (second compound 3.16 µM, first compound 0.316 µM) 2.71% | viability, T/C (second compound 3.16 µM, first compound 1 µM) 2.03% | viability, T/C (second compound 3.16 µM, first compound 3.16 µM) 1.93% | viability, T/C (second compound 3.16 µM, first compound 10 µM) 2.28% | viability, T/C (second compound 10 µM, first compound 0.1 µM) 6.18% | viability, T/C (second compound 10 µM, first compound 0.316 µM) 2.63% | viability, T/C (second compound 10 µM, first compound 1 µM) 2% | viability, T/C (second compound 10 µM, first compound 3.16 µM) 1.88% | viability, T/C (second compound 10 µM, first compound 10 µM) 2.59% | viability, T/C (second compound 31.6 µM, first compound 0.1 µM) 4.45% | viability, T/C (second compound 31.6 µM, first compound 0.316 µM) 2.43% | viability, T/C (second compound 31.6 µM, first compound 1 µM) 2% | viability, T/C (second compound 31.6 µM, first compound 3.16 µM) 2.1% | viability, T/C (second compound 31.6 µM, first compound 10 µM) 2.35% | viability, T/C (second compound 100 µM, first compound 0.0316 µM) 6.2% | viability, T/C (second compound 100 µM, first compound 0.1 µM) 4.15% | viability, T/C (second compound 100 µM, first compound 0.316 µM) 2.65% | viability, T/C (second compound 100 µM, first compound 1 µM) 2.04% | viability, T/C (second compound 100 µM, first compound 3.16 µM) 1.79% | viability, T/C (second compound 100 µM, first compound 10 µM) 1.82%

Cc1sc2c(c1C)C(c1ccc(Cl)cc1)=NC(CC(=O)Nc1ccc(O)cc1)c1nnc(C)n1-2 (configuration not stated)
inactive: viability, T/C (compound 0.00949 µM) 103% and 96.2% and 86.5% | viability, T/C (compound 0.03 µM) 91.5% and 82% and 79.4% | viability, T/C (compound 0.0949 µM) 71.5% and 60.6% and 61.9% | viability, T/C (compound 0.3 µM) 30.2% and 39.3% and 30.7% | viability, T/C (compound 0.949 µM) 18.2% and 16.5% and 16.8% | viability, T/C (compound 3 µM) 11.9% and 11.7% and 9.97%
0.173 µM and 0.161 µM and 0.146 µM: IC50 (curve of compound)

Cc1cc(C)c(CNC(=O)c2cc(-c3ccc(CN4CCOCC4)cc3)cc3c2cnn3C2CCCC2)c(=O)[nH]1 + COc1cc2c(cc1O)CCNC21CSC2c3c(OC(C)=O)c(C)c4c(c3C(COC1=O)N1C(O)C3Cc5cc(C)c(OC)c(O)c5C(C21)N3C)OCO4
< 0.0316 µM: IC50 (curve of first compound, second compound 0.0003 µM) | IC50 (curve of first compound, second compound 0.000949 µM) | IC50 (curve of first compound, second compound 0.003 µM)
active: viability, T/C (second compound 0.000949 µM, first compound 0.0316 µM) 2.63% | viability, T/C (second compound 0.000949 µM, first compound 0.1 µM) 2.57% | viability, T/C (second compound 0.000949 µM, first compound 0.316 µM) 2.16% | viability, T/C (second compound 0.000949 µM, first compound 1 µM) 2.23% | viability, T/C (second compound 0.000949 µM, first compound 3.16 µM) 2.69% | viability, T/C (second compound 0.000949 µM, first compound 10 µM) 1.43% | viability, T/C (second compound 0.003 µM, first compound 0.0316 µM) 0.15% | viability, T/C (second compound 0.003 µM, first compound 0.1 µM) 0.17% | viability, T/C (second compound 0.003 µM, first compound 0.316 µM) 0.17% | viability, T/C (second compound 0.003 µM, first compound 1 µM) 0.15% | viability, T/C (second compound 0.003 µM, first compound 3.16 µM) 0.17% | viability, T/C (second compound 0.003 µM, first compound 10 µM) 0.22%
> 10 µM: IC50 (curve of first compound, second compound 30 pM)
8.46 µM: IC50 (curve of first compound, second compound 94.9 pM)
inactive: viability, T/C (second compound 30 pM, first compound 0.0316 µM) 106% | viability, T/C (second compound 30 pM, first compound 0.1 µM) 106% | viability, T/C (second compound 30 pM, first compound 0.316 µM) 108% | viability, T/C (second compound 30 pM, first compound 1 µM) 108% | viability, T/C (second compound 30 pM, first compound 3.16 µM) 107% | viability, T/C (second compound 30 pM, first compound 10 µM) 76.6% | viability, T/C (second compound 94.9 pM, first compound 0.0316 µM) 92.4% | viability, T/C (second compound 94.9 pM, first compound 0.1 µM) 100% | viability, T/C (second compound 94.9 pM, first compound 0.316 µM) 91.3% | viability, T/C (second compound 94.9 pM, first compound 1 µM) 86% | viability, T/C (second compound 94.9 pM, first compound 3.16 µM) 79.4% | viability, T/C (second compound 94.9 pM, first compound 10 µM) 45.1% | viability, T/C (second compound 0.0003 µM, first compound 0.0316 µM) 15.2% | viability, T/C (second compound 0.0003 µM, first compound 0.1 µM) 15.1% | viability, T/C (second compound 0.0003 µM, first compound 0.316 µM) 13.4% | viability, T/C (second compound 0.0003 µM, first compound 1 µM) 11.8% | viability, T/C (second compound 0.0003 µM, first compound 3.16 µM) 12.4% | viability, T/C (second compound 0.0003 µM, first compound 10 µM) 11.8%

Reference: PubChem BioAssay AID1845204 (Molecular Pharmacology Branch, DTP, NCI, 2023)
